From patent US9513294B2, “Megastokes amino-triazolyl-BODIPY compounds and applications to live neuron staining and human serum albumin FA1 drug site probing” (National University of Singapore, priority 2012, dated 2016)

How the values were obtained:
[1] = Quantum yield measurements versus Acridine Yellow in EtOH; type: physicochemical; conditions: excitation 460 nm
Protocol: (§1) ^1H-NMR, ^19F-NMR and ^13C-NMR spectra were recorded on Bruker ACF300 (300 MHz), DPX300 (300 MHz) and AMX500 (500 MHz) spectrometers. High resolution mass spectra (ESI) were obtained on a Finnigan/MAT 95XL-T spectrometer. Spectroscopic and quantum yield data were measured on a SpectraMax M2 spectrophotometer (Molecular Devices). Data analysis was performed using GraphPrism 5.0. Analytical characterization was performed on a HPLC-MS (Agilent-1200 series) with a DAD detector and a single quadrupole mass spectrometer (6130 series) with an ESI probe. Analytical HPLC method: eluents, A: H2O (0.1% HCOOH), B: CH3CN (0.1% HCOOH), gradient 5% B to 95% B (10 min). Reverse-phase Phenomenex C18 Luna column (4.6×50 mm^2, 3.5 […]), flow rate: 1 mL/min.
Quantum yields were calculated by measuring the integrated emission area of the fluorescent spectra and comparing to the area measured for Acridine Yellow in EtOH when excited at 460 nm (Φfluorescence^AcridineYellow=0.47). Quantum yields for the amino-triazolyl-BODIPYs were calculated using the equation below, where F represents the area of fluorescent emission, η is the refractive index of the solvent, and Abs is absorbance at the excitation wavelength selected for standards and samples. Emission was integrated between 510 and 700 nm.

[2] = Absorbance and fluorescence emission spectra (SpectraMax M2); type: physicochemical
Protocol: BDC-8 (Blue): absorbance λmax=473 nm, emission λmax=585 nm; MK101-8 (Green): absorbance λmax=474 nm, emission λmax=563 nm; MKHA374-48 (Yellow): absorbance λmax=468 nm, λem=557 nm. The corresponding spectra of a reported BODIPY (BD-27; Red) are also included for comparison: absorbance λmax=551 nm, emission λmax=568 nm. The structures of BDC-8, MK101-8, MKHA374-48 and BD-27 are also depicted.
as §1

Structure (SMILES) | φ (quantum yield) ([1]; BDC library, Table 2) | λmax Absorp. ([2]; BDC library, Table 2) | λmax Emission ([2]; BDC library, Table 2) | φ (quantum yield) ([1]; BDCAC library, Table 3) | λmax Absorp. ([2]; BDCAC library, Table 3) | λmax Emission ([2]; BDCAC library, Table 3)
CN(Cc1ccccc1)Cc1cn(-c2ccc3n2[B-](F)(F)[N+]2=C(N4CCCCC4)C=CC2=C3c2ccc(N)cc2)nn1 [BDC-18] | 0.18% | 471 nm | 580 nm |  |  | 
Nc1ccc(C2=C3C=CC(N4CCCCC4)=[N+]3[B-](F)(F)n3c2ccc3-n2cc(CCc3ccccc3)nn2)cc1 [BDC-19] | 0.08% | 476 nm | 594 nm |  |  | 
COc1ccc2cc(-c3cn(-c4ccc5n4[B-](F)(F)[N+]4=C(N6CCCCC6)C=CC4=C5c4ccc(N)cc4)nn3)ccc2c1 [BDC-22] | 0.28% | 472 nm | 579 nm |  |  | 
Nc1ccc(C2=C3C=CC(N4CCCCC4)=[N+]3[B-](F)(F)n3c2ccc3-n2cc(-c3ccc(-c4ccccc4)cc3)nn2)cc1 [BDC-23] | 0.20% | 472 nm | 570 nm |  |  | 
Nc1ccc(C2=C3C=CC(N4CCCCC4)=[N+]3[B-](F)(F)n3c2ccc3-n2cc(-c3ccc(F)cc3F)nn2)cc1 [BDC-26] | 0.12% | 473 nm | 585 nm |  |  | 
COc1cccc(-c2cn(-c3ccc4n3[B-](F)(F)[N+]3=C(N5CCCCC5)C=CC3=C4c3ccc(N)cc3)nn2)c1 [BDC-27] | 0.17% | 472 nm | 565 nm |  |  | 
CCCCCc1ccc(-c2cn(-c3ccc4n3[B-](F)(F)[N+]3=C(N5CCCCC5)C=CC3=C4c3ccc(N)cc3)nn2)cc1 [BDC-29] | 0.23% | 471 nm | 586 nm |  |  | 
Nc1ccc(C2=C3C=CC(N4CCCCC4)=[N+]3[B-](F)(F)n3c2ccc3-n2cc(-c3cc(C(F)(F)F)cc(C(F)(F)F)c3)nn2)cc1 [BDC-30] | 0.57% | 466 nm | 547 nm |  |  | 
Nc1ccc(C2=C3C=CC(N4CCCCC4)=[N+]3[B-](F)(F)n3c2ccc3-n2cc(-c3cccc(F)c3)nn2)cc1 [BDC-31] | 0.11% | 470 nm | 582 nm |  |  | 
CC(C)CCc1cn(-c2ccc3n2[B-](F)(F)[N+]2=C(N4CCCCC4)C=CC2=C3c2ccc(N)cc2)nn1 [BDC-36] | 0.11% | 476 nm | 590 nm |  |  | 
Nc1ccc(C2=C3C=CC(N4CCCCC4)=[N+]3[B-](F)(F)n3c2ccc3-n2cc(C3=CCCCC3)nn2)cc1 [BDC-37] | 0.12% | 474 nm | 579 nm |  |  | 
CCCCc1cn(-c2ccc3n2[B-](F)(F)[N+]2=C(N4CCCCC4)C=CC2=C3c2ccc(N)cc2)nn1 [BDC-42] | 0.19% | 473 nm | 584 nm |  |  | 
CC(C)Cc1cn(-c2ccc3n2[B-](F)(F)[N+]2=C(N4CCCCC4)C=CC2=C3c2ccc(N)cc2)nn1 [BDC-43] | 0.10% | 476 nm | 589 nm |  |  | 
CCCCCCCCc1cn(-c2ccc3n2[B-](F)(F)[N+]2=C(N4CCCCC4)C=CC2=C3c2ccc(N)cc2)nn1 [BDC-44] | 0.13% | 475 nm | 583 nm |  |  | 
Cc1cccc(-c2cn(-c3ccc4n3[B-](F)(F)[N+]3=C(N5CCCCC5)C=CC3=C4c3ccc(N)cc3)nn2)c1 [BDC-45] | 0.42% | 469 nm | 556 nm |  |  | 
CCc1ccc(-c2cn(-c3ccc4n3[B-](F)(F)[N+]3=C(N5CCCCC5)C=CC3=C4c3ccc(N)cc3)nn2)cc1 [BDC-46] | 0.10% | 473 nm | 585 nm |  |  | 
CCCCCCc1cn(-c2ccc3n2[B-](F)(F)[N+]2=C(N4CCCCC4)C=CC2=C3c2ccc(N)cc2)nn1 [BDC-47] | 0.16% | 473 nm | 574 nm |  |  | 

Structure (SMILES) | φ (quantum yield) ([1]; BDC library, Table 2) | λmax Absorp. ([2]; BDC library, Table 2) | λmax Emission ([2]; BDC library, Table 2) | φ (quantum yield) ([1]; BDCAC library, Table 3) | λmax Absorp. ([2]; BDCAC library, Table 3) | λmax Emission ([2]; BDCAC library, Table 3)
CCCc1cn(-c2ccc3n2[B-](F)(F)[N+]2=C(N4CCCCC4)C=CC2=C3c2ccc(N)cc2)nn1 [BDC-48] | 0.10% | 476 nm | 582 nm |  |  | 
CCCCCCCCCCc1cn(-c2ccc3n2[B-](F)(F)[N+]2=C(N4CCCCC4)C=CC2=C3c2ccc(N)cc2)nn1 [BDC-49] | 0.12% | 475 nm | 589 nm |  |  | 
CCCCCCCc1cn(-c2ccc3n2[B-](F)(F)[N+]2=C(N4CCCCC4)C=CC2=C3c2ccc(N)cc2)nn1 [BDC-50] | 0.13% | 475 nm | 577 nm |  |  | 
Nc1ccc(C2=C3C=CC(N4CCCCC4)=[N+]3[B-](F)(F)n3c2ccc3-n2cc(C3(O)CCCC3)nn2)cc1 [BDC-67] | 0.09% | 478 nm | 595 nm |  |  | 
CCCCCC(O)c1cn(-c2ccc3n2[B-](F)(F)[N+]2=C(N4CCCCC4)C=CC2=C3c2ccc(N)cc2)nn1 (stereo not drawn) [BDC-69] | 0.13% | 476 nm | 586 nm |  |  | 
Nc1ccc(C2=C3C=CC(N4CCCCC4)=[N+]3[B-](F)(F)n3c2ccc3-n2cc(CO)nn2)cc1 [BDC-70] | 0.13% | 474 nm | 586 nm |  |  | 
CC(=O)Nc1ccc(C2=C3C=CC(N4CCCCC4)=[N+]3[B-](F)(F)n3c2ccc3-n2cc(C(C)(C)C)nn2)cc1 [BDCAC-1] |  |  |  | 1.5% | 469 nm | 580 nm
CC(=O)Nc1ccc(C2=C3C=CC(N4CCCCC4)=[N+]3[B-](F)(F)n3c2ccc3-n2cc(CN(C)C)nn2)cc1 [BDCAC-2] |  |  |  | 0.8% | 466 nm | 591 nm
CCCC(C)c1cn(-c2ccc3n2[B-](F)(F)[N+]2=C(N4CCCCC4)C=CC2=C3c2ccc(NC(C)=O)cc2)nn1 (stereo not drawn) [BDCAC-3] |  |  |  | 1.5% | 467 nm | 585 nm
CC(=O)Nc1ccc(C2=C3C=CC(N4CCCCC4)=[N+]3[B-](F)(F)n3c2ccc3-n2cc(C3CC3)nn2)cc1 [BDCAC-4] |  |  |  | 1.5% | 467 nm | 578 nm
CC(=O)Nc1ccc(C2=C3C=CC(N4CCCCC4)=[N+]3[B-](F)(F)n3c2ccc3-n2cc(C3CCCC3)nn2)cc1 [BDCAC-5] |  |  |  | 1.3% | 469 nm | 588 nm
CC(=O)Nc1ccc(C2=C3C=CC(N4CCCCC4)=[N+]3[B-](F)(F)n3c2ccc3-n2cc(C3CCCCC3)nn2)cc1 [BDCAC-6] |  |  |  | 2.4% | 467 nm | 560 nm
CC(=O)Nc1ccc(C2=C3C=CC(N4CCCCC4)=[N+]3[B-](F)(F)n3c2ccc3-n2cc(CC3CCCC3)nn2)cc1 [BDCAC-7] |  |  |  | 1.3% | 467 nm | 585 nm
CC(=O)Nc1ccc(C2=C3C=CC(N4CCCCC4)=[N+]3[B-](F)(F)n3c2ccc3-n2cc(CC3CCCCC3)nn2)cc1 [BDCAC-8] |  |  |  | 0.9% | 468 nm | 585 nm
CC(=O)Nc1ccc(C2=C3C=CC(N4CCCCC4)=[N+]3[B-](F)(F)n3c2ccc3-n2cc(-c3ccccc3)nn2)cc1 [BDCAC-9] |  |  |  | 1.1% | 465 nm | 579 nm
CC(=O)Nc1ccc(C2=C3C=CC(N4CCCCC4)=[N+]3[B-](F)(F)n3c2ccc3-n2cc(-c3ccc(C)cc3)nn2)cc1 [BDCAC-10] |  |  |  | 2.4% | 464 nm | 556 nm
